Values of other authors as cited in US20220168251A1, “PROCESS FOR PRODUCTION OF A NANO-MICROEMULSION SYSTEM OF FERULIC” (priority 2020, published 2022).

Tested on: hypertensive rats
Conditions: 8 weeks of treatment

COc1cc(/C=C/C(=O)O)ccc1O [ferulic acid, Ferulic acid]
blood flow to kidney: improvement | left ventricular stiffness in heart: decrease | systolic blood pressure: significant decrease
